In article PMC5445010 (Chembiochem : a European journal of chemical biology, 2017):
Read-outs that look alike come from different tables or passages of the source.

How the values were obtained:
IspH [1] = settings: cited from earlier work
IspG = settings: cited from earlier work
IspH [2] = format: biochemical

SMILES: C#CCOP(=O)(O)OP(=O)(O)O [Compound 5, propargyl diphosphate]
- IspH inhibition (in words) (IspH [1]): low μM inhibitors
- IspG inhibition (in words) (IspG): low μM inhibitors

SMILES: Nc1ccc2c(c1)CC1(C(=O)NC(=O)NC1=O)C1CN(Cc3ccccc3)CCN21 (stereo not shown) [Compound 9, 8-amino-3-benzyl-2,3,4,4a-tetrahydro-1H,2′H,6H-spiro[pyrazino[1,2-a]quinoline-5,5′-pyrimidine]-2′,4′,6′ (1′H,3′H)-trione]
- Ki (IspH [2]; read-out: Ki of barbiturate analogs, IspH (summary over enzymes)): 0.5 to 3 µM

SMILES: C#CCO [propargyl alcohol]
- Ki (IspH [2]; read-out: IspH inhibition Ki): > 10000 µM
